Test results as given in US20250353821A1, “BENZENE SULFONAMIDE THIAZOLE COMPOUNDS AND THEIR USE FOR THE TREATMENT OF CANCERS” (INSERM (INSTITUT NATIONAL DE LA SANTÉ ET DE LA RECHERCHE …, priority 2021, published 2025).
Converted amounts (≈) assume the structure as drawn.

What was measured:
[1] = Pharmacokinetics in mice (half-life, AUC IV, AUC PO); format: in vivo; details: for half-life: mouse, in vivo, 1 mg/kg, head prints both IV and PO administration 1 mpk, read-out: T½ IV (min) (PO administration 1 mpk)
[2] = test system: CHOP in A375 melanoma cells; assay: CHOP induction (ER stress marker), western blot, A375; format: cell-based, human; set-up: key: −: No induction of CHOP; +: Induction of CHOP; ++: Significant induction of CHOP; +++: Strong induction of CHOP; details: A375 (serum free), 24 h
[3] = test system: CHOP in SH10TC cells; assay: CHOP induction (ER stress marker), western blot, SH10TC; format: cell-based, human; set-up: key: −: No induction of CHOP; +: Induction of CHOP; ++: Significant induction of CHOP; +++: Strong induction of CHOP; details: SH10TC (serum free), 24 or 48 h
[4] = test system: CHOP in Kyse 70 cells; assay: CHOP induction (ER stress marker), western blot, Kyse70; format: cell-based, human; set-up: key: −: No induction of CHOP; +: Induction of CHOP; ++: Significant induction of CHOP; +++: Strong induction of CHOP; details: Kyse70 (serum free), 24 h
[5] = test system: CHOP in KATO III cells; assay: CHOP induction (ER stress marker), western blot, Kato III; format: cell-based, human; set-up: key: −: No induction of CHOP; +: Induction of CHOP; ++: Significant induction of CHOP; +++: Strong induction of CHOP; details: Kato III (1% SVF), 24 or 48 h
[6] = test system: A375 melanoma cells; assay: IC50 determination in A375 cells, blue trypan exclusion; format: cell-based, human; details: Homo sapiens, A-375; A375, serum free, 24 h
[7] = test system: NCI-60 Human Tumor Cell Lines; assay: DTP-NCI-60 Human Tumor Cell Lines screen, one-dose; format: cell-based; details: growth relative to no-drug control and time zero, 100 = no inhibition, 0 = no net growth, negative = lethality
[8] = Aqueous solubility; format: physicochemical; details: aqueous medium (not further specified), read-out: Solublity
[9] = Chemical stability in PBS/DMSO and aqueous HCl; format: physicochemical; details: 24 h
[10] = test system: A375 melanoma cells; assay: Cell viability by cell counting, trypan blue exclusion method; format: cell-based; details: Homo sapiens, A-375, 48 h, percentage of cells alive relative to negative control DMSO (100%)
[11] = test system: normal human melanocytes (MHN); assay: In vitro toxicity test on normal human melanocytes, 48 h; format: cell-based; details: concentration 10 times higher than its IC50, FIG. 2
[12] = test system: Normal human fibroblasts (FHN); assay: In vitro toxicity test on normal human fibroblasts, 48 h; format: cell-based; details: concentration 10 times higher than its IC50, FIG. 2

| AUC PO (min · ng/mL/mpk) [1] [min · ng/mL/mpk] | half-life [1] [min] | IC50 [6] [µM] | AUC IV (min · ng/mL/mpk) [1] [min · ng/mL/mpk] | solubility [8] [µM] | chemical stability ([9]; PBS (pH 7.4), 20% DMSO) | chemical stability ([9]; PBS (pH 7.4), 20% DMSO, 80° C.) | chemical stability ([9]; aqueous HCl (0.1M)) | SMILES | Induction of CHOP in comparison to control condition, A375 [2] | Induction of CHOP in comparison to control condition, SH10TC [3] | Induction of CHOP in comparison to control condition, Kyse70 [4] | Induction of CHOP in comparison to control condition, Kato III [5] | Mean growth inhibition value (data from DTP-NCI60) [7] | viability at 5 µM ([10]; 5 μM) [%] | viability at 10 µM ([10]; 10 μM) [%] | toxicity in normal human melanocytes [11] | toxicity in normal human fibroblasts [12] |
| --- | --- | --- | --- | --- | --- | --- | --- | --- | --- | --- | --- | --- | --- | --- | --- | --- | --- |
| 6266 | 77 | 1.7 |  |  |  |  |  | CCCCCc1ccc(S(=O)(=O)Nc2cc(-c3csc(NC(=O)CN4CCN(C)CC4)n3)ccc2OC)cc1 [PB691, N-(4-(4-methoxy-3-((4-pentylphenyl)sulfonamido)phenyl)thiazol-2-yl)-2-(4-methylpiperazin-1-yl)acetamide] | + | − | ++ | + |  |  |  |  |  |
|  |  | 1.3 |  |  |  |  |  | CCCCCc1ccc(S(=O)(=O)N(C(C)=O)c2cccc(-c3csc(N(CCN4CCN(C)CC4)C(C)=O)n3)c2)cc1 [PB705, N-(2-(4-methylpiperazin-1-yl)ethyl)-N-(4-(3-(N-((4-pentylphenyl)sulfonyl)acetamido)phenyl)thiazol-2-yl)acetamide] | ++ |  |  | ++ | 5.64 |  |  |  |  |
|  |  | 0.75 |  |  |  |  |  | CCCCCc1ccc(S(=O)(=O)Nc2cccc(-c3csc(NC(=O)CCCCCN4CCN(C)CC4)n3)c2)cc1 [PB694, 6-(4-methylpiperazin-1-yl)-N-(4-(3-((4-pentylphenyl)sulfonamido)phenyl)thiazol-2-yl)hexanamide] | + | ++ | ++ | + | 37.26 |  |  |  |  |
| 3000 | 76 | 1 | 112348 | 17 ± 7 (≈ 9.21 µg/mL) |  |  |  | CCCCCc1ccc(S(=O)(=O)Nc2cccc(-c3csc(NC(=O)CN4CCN(C)CC4)n3)c2)cc1 [PB688, 2-(4-methylpiperazin-1-yl)-N-(4-(3-((4-pentylphenyl)sulfonamido)phenyl)thiazol-2 yl)acetamide] | +++ | ++ | +++ | + |  |  |  |  |  |
|  | 110 | 1.3 |  |  |  |  |  | CCCCCc1ccc(S(=O)(=O)Nc2cccc(-c3csc(NC(=O)CN4CCN(CCO)CC4)n3)c2)cc1 [PB689, 2-(4-(2-hydroxyethyl)piperazin-1-yl)-N-(4-(3-((4-pentylphenyl)sulfonamido)phenyl)thiazol-2-yl)acetamide] | + | +++ | + | ++ |  |  |  |  |  |
|  |  | 0.6 |  |  |  |  |  | CCCCCc1ccc(S(=O)(=O)Nc2cccc(-c3csc(NC(=O)CCCCCN4CCN(CCO)CC4)n3)c2)cc1 [PB695, 6-(4-(2-hydroxyethyl)piperazin-1-yl)-N-(4-(3-((4-pentylphenyl)sulfonamido)phenyl)thiazol-2-yl)hexanamide] | + | ++ | + | − |  |  |  |  |  |
|  | 312 | 0.9 |  | 49 ± 16 (≈ 31.4 µg/mL) |  |  |  | CCCCCc1ccc(S(=O)(=O)Nc2cc(-c3csc(NC(=O)CN4CCN(C)CC4)n3)ccc2N2CCN(C)CC2)cc1 [PB696, 2-(4-methylpiperazin-1-yl)-N-(4-(4-(4-methylpiperazin-1-yl)-3-((4-pentylphenyl)sulfonamido)phenyl)thiazol-2-yl)acetamide] | + | ++ | − | + |  |  |  |  |  |
| 3978 |  | 1.6 | 488474 | 7 ± 5 (≈ 4.21 µg/mL) |  |  |  | CCCCCc1ccc(S(=O)(=O)Nc2cc(-c3csc(NC(=O)CN4CCN(CCO)CC4)n3)ccc2OC)cc1 [PB692, 2-(4-(2-hydroxyethyl)piperazin-1-yl)-N-(4-(4-methoxy-3-((4-pentylphenyl)sulfonamido)phenyl)thiazol-2-yl)acetamide] | + | + | + | + | 23.99 |  |  |  |  |
| 4435 |  | 1.2 | 197707 | 1.4 ± 0.3 (≈ 0.739 µg/mL) | full stability | full stability | full stability | CCCCCc1ccc(S(=O)(=O)Nc2cccc(-c3csc(NCCN4CCN(C)CC4)n3)c2)cc1 [PB704, N-(3-(2-((2-(4-methylpiperazin-1-yl)ethyl)amino)thiazol-4-yl)phenyl)-4-pentylbenzenesulfonamide] | ++ | − | + | + | 55.54 |  |  |  |  |
|  |  |  |  |  |  |  |  | CC(=O)NCCCCCC(=O)Nc1nc(-c2cccc(NS(=O)(=O)c3cccc4c(N(C)C)cccc34)c2)cs1 [PB628, 6-acetamido-N-(4-(3-((5-(dimethylamino)naphthalene)-1-sulfonamido)phenyl)thiazol-2-yl)hexanamide] |  |  |  |  |  | 25.2 ± 6.1 | 12.5 ± 6.7 | no toxicity | no toxicity |
